Test results taken from patent publication US5162360A, “2-heteroatom containing urea and thiourea ACAT inhibitors” (Warner-Lambert Company, priority 1991, dated 1992).

Experiments:
[1] = molecular target: T1, acyl-coenzyme A:cholesterol acyltransferase (ACAT) (Oryctolagus cuniculus, UniProt G1SFD9); test: In vitro ACAT inhibition (radiolabeled cholesterol oleate formation from oleic acid, rabbit intestinal microsomes); type: biochemical
T1 sequence (G1SFD9 1-524): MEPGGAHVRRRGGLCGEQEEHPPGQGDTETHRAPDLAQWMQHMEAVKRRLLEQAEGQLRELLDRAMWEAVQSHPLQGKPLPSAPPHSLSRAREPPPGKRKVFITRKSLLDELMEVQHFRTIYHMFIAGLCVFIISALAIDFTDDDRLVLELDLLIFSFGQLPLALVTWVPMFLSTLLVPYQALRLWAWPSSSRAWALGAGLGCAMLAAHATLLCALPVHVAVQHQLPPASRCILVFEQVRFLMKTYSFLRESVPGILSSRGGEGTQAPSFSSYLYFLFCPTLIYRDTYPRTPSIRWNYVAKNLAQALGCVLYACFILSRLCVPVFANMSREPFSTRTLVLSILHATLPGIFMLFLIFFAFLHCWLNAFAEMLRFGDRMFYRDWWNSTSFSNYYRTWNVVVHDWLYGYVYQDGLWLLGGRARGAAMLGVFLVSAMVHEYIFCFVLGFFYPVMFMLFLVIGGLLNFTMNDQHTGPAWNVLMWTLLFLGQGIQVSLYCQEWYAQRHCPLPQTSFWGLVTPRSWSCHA
Procedure: The ability of representative compounds of the present invention to inhibit ACAT was measured using an in vitro test more fully described by F. J. Field and R. G. Salone, in Biochemica et Biophysica 712:557-570 (1982). The test assesses the ability of a test compound to inhibit the acylation of cholesterol by oleic acid by measuring the amount of radio-labeled cholesterol oleate formed from radiolabeled oleic acid in a tissue preparation containing rabbit intestinal microsomes.

[2] = APCC in vivo screen: blood cholesterol in cholesterol-fed rats; parameters: species or system male Sprague-Dawley rats; details: Rattus norvegicus, 192 h, oral, chow diet with peanut oil 5.5%, cholesterol 1.5%, cholic acid 0.5%, blood sampled next day 8 AM, read-out: % Change (mg/dl)
Procedure: In one in vivo screen designated APCC, male Sprague-Dawley rats (200 to 225 g) were randomly divided into treatment groups and dosed orally at 4 PM with either vehicle (CMC/Tween) or suspensions of test compounds in vehicle. The control group received vehicle alone. […] The next day the animals were sacrificed at 8 AM to obtain blood samples for cholesterol analysis using standard procedures. Statistical differences between mean cholesterol values for the same vehicle were determined using analysis of variance followed by Fisher's least significant test. […] The figure in parenthesis indicates the number of milligrams/kilogram of test compound administered.

Row | Structure (SMILES) | IC50 [1] [nM] | change in vivo at 3 mg/kg [2] [%] | change in vivo at 30 mg/kg [2] [%]
1 | CCCCCCCCCCCCCCc1cc(NC(=O)Nc2c(C(C)C)cccc2C(C)C)no1 [Example 17, N-[2,6-bis(1-methylethyl)phenyl]-N'-(5-tetradecyl-3-isoxazolyl)urea] | 110 | -47 | -58
2 | CCCCCCCCCCc1cc(NC(=O)Nc2c(C(C)C)cccc2C(C)C)on1 [Example 10, N-[2,6-bis(1-methylethyl)phenyl]-N'-(3-decyl-5-isoxazolyl)urea] |  | -61 | -69
3 | CCCCCCCCCCc1sc(NC(=O)Nc2c(C(C)C)cccc2C(C)C)nc1C [Example 1, N-[2,6-bis(1-methylethyl)phenyl]-N'-(5-decyl-4-methyl-2-thiazolyl)urea] |  |  | -20
4 | CCCCCCCCCCCCCCc1cc(NC(=O)Nc2c(C(C)C)cccc2C(C)C)on1 [Example 13, N-[2,6-bis(1-methylethyl)phenyl]-N'-(3-tetradecyl-5-isoxazolyl)urea] |  | -44 | -64
5 | CCCCCCCCCCCCc1cc(NC(=O)Nc2c(C(C)C)cccc2C(C)C)on1 [Example 8, N-[2,6-bis(1-methylethyl)phenyl]-N'-(3-dodecyl-5-isoxazolyl)urea] |  | -58 | -61
6 | Cc1csc(NC(=O)Nc2c(C(C)C)cccc2C(C)C)n1 [Example 6, N-[2,6-bis(1-methylethyl)phenyl]-N'-(4-methyl-2-thiazolyl)urea] | > 5000 |  | 
7 | CCCCCCc1csc(NC(=O)Nc2c(C(C)C)cccc2C(C)C)n1 [Example 4, N-[2,6-bis(1-methylethyl)phenyl]-N'-(4-hexyl-2-thiazolyl)urea] | 1600 |  | 4
8 | CCCCCCCCCCCCCc1cc(NC(=O)Nc2c(C(C)C)cccc2C(C)C)on1 [Example 12, N-[2,6-bis(1-methylethyl)phenyl]-N'-(3-tridecyl-5-isoxazolyl)urea] |  | -51 | -62
9 | CCCCCc1sc(NC(=O)Nc2c(C(C)C)cccc2C(C)C)nc1C [Example 3, N-[2,6-bis(1-methylethyl)phenyl]-N-(5-pentyl-4-methyl-2-thiazolyl)urea] | 1900 |  | -17
10 | CCCCCCCCCCCCc1cc(NC(=O)Nc2c(C(C)C)cccc2C(C)C)no1 [Example 9, N-[2,6-bis(1-methylethyl)phenyl]-N'-(5-dodecyl-3-isoxazolyl)urea] | 27 | -54 | -67
11 | CCCCCCCCCCCCCc1cc(NC(=O)Nc2c(C(C)C)cccc2C(C)C)no1 [Example 16, N-[2,6-bis(1-methylethyl)phenyl]-N'-(5-tridecyl-3-isoxazolyl)urea] |  | -59 | -62
12 | CC(C)c1cccc(C(C)C)c1NC(=O)Nc1nc(-c2ccccc2)cs1 [Example 5, N-[2,6-bis(1-methylethyl)phenyl]-N'-(4-phenyl-2-thiazolyl)urea] | > 5000 |  | 
13 | CCCCCCCCCCCc1cc(NC(=O)Nc2c(C(C)C)cccc2C(C)C)on1 [Example 11, N-[2,6-bis(1-methylethyl)phenyl]-N'-(3-undecyl-5-isoxazolyl)urea] | 20 | -67 | -70
14 | CCCCN(CCCC)Cc1cc(NC(=O)Nc2c(C(C)C)cccc2C(C)C)no1 [Example 19, N-[2,6-bis(1-methylethyl)phenyl]-N'-[5-[(dibutylamino)methyl]-3-isoxazolyl]urea] | 510 | -33 | -50
15 | CCCCCCCCCCc1cc(NC(=O)Nc2c(C(C)C)cccc2C(C)C)no1 [Example 14] | 28 | -29 | -62

More lines, main results first:

Row | IC50 [1] [nM] | Structure (SMILES) | change in vivo at 3 mg/kg [2] [%] | change in vivo at 30 mg/kg [2] [%]
16 | > 1000 | CC(C)c1cccc(C(C)C)c1NC(=O)Nc1nc(C(C)(C)C)cs1 [Example 7, N-[2,6-bis(1-methylethyl)phenyl]-N'-(4-tert-butyl-2-thiazolyl)urea] |  | 
17 | 1900 | CCCCN(CCCC)Cc1cc(NC(=O)Nc2c(C(C)C)cccc2C(C)C)n(Cc2ccccc2)n1 [Example 22, N-[2,6-bis(1-methylethyl)phenyl]-N'-[3-[(dibutylamino)methyl]-1-(phenylmethyl)-1H-pyrazol-5-yl]urea] |  | -9
18 | 2700 | CCCCCCN(CCCCCC)Cc1cc(NC(=O)Nc2c(C(C)C)cccc2C(C)C)no1 [Example 20, N-[2,6-bis(1-methylethyl)phenyl]-N'-[5-[(dihexylamino)methyl]-3-isoxazolyl]urea] |  | -7
19 | > 5000 | Cc1cc(NC(=O)Nc2c(C(C)C)cccc2C(C)C)no1 [Example 18, N-[2,6-bis(1 methylethyl)phenyl]-N'-(5-methyl-3-isoxazolyl)urea] |  | 
20 | 27 | CCCCCCCCCCCc1cc(NC(=O)Nc2c(C(C)C)cccc2C(C)C)no1 [Example 15, N-[2,6-bis(1-methylethyl)phenyl]-N'-(5-undecyl-3-isoxazolyl)urea] | -51 | -61
21 | 35 | CCCCCCCCCCCn1nccc1NC(=O)Nc1c(C(C)C)cccc1C(C)C [Example 23, N-[2,6-bis(1-methylethyl)phenyl]-N'-(1-undecyl-1H-pyrazol-5-yl)urea] | 5 | -64
22 | 100 | CCCCCCCCCCCCc1cc(NC(=O)Nc2c(C(C)C)cccc2C(C)C)n(-c2ccccn2)n1 [Example 24, N-[2,6-bis(1-methylethyl)phenyl]-N'-[3-dodecyl-1-(2-pyridyl)-1H-pyrazol-5-yl]urea] |  | 9
